Experimental data reported in patent publication US4146631A, “Benzamide derivatives” (May & Baker Limited, priority 1976, dated 1979).

What follows are molecules tested on passive cutaneous anaphylactic (PCA) reaction (assay: Passive cutaneous anaphylactic (PCA) reaction, reagin-allergen combination, in rats). Details: Rattus norvegicus, intravenous, just before injection of allergen, read-out: ED100 (intravenous dose which produces 100% inhibition of the PCA reaction).
Type: in vivo
Source text: In pharmacological tests the benzamide derivatives of general formula I suppress the passive cutaneous anaphylactic (PCA) reaction resulting from combination of tissue-fixed reaginic antibodies with the appropriate antigenic material (termed reagin-allergen combination) and carried out in an essentially similar manner to that described by Ogilvie [Nature (Lond.), (1964), 204, 91-92; Immunology, (1967), 12, 112-131]. In the method used to test these compounds sera were obtained from rats which had been infected with larvae of the nematode parasite Nippostrongylus brasiliensis; as a result of the parasitic infestation reaginic antibodies are elaborated in the host mammal and are found in sera removed from such animals. Other, non-infected, rats received intradermal injections of appropriate dilutions of such sera and were then given the allergenic material along with Evans' blue dye intravenously forty-eight hours later.
The allergenic material consisted of supernatant fluid after centrifugation of homogenates of adult Nippostrongylus brasiliensis worms which had been macerated in Tyrode's solution. The sites of PCA reactions were visualised by the effusion of Evan's blue dye from the circulation into those areas as a result of increased capillary permeability caused by the release of biologically-active substances from cells where reagin-allergen combination had occurred. The new compounds when given intravenously to the rats just before injection of allergen, or administered orally thirty minutes before intravenous injection of allergen, were able to prevent the development of the PCA reaction, as shown below in Table I, Table II and Table III.

Compound	ED100 [mg/kg]
CN(C)S(=O)(=O)c1ccc(O)c(C(=O)Nc2nnn[nH]2)c1 [AB, 2-hydroxy-5-(N,N-dimethylsulphamoyl)-N-(tetrazol-5-yl)benzamide]	2
O=C(Nc1nnn[nH]1)c1cc(Br)cc(Br)c1O [AY, 3,5-dibromo-2-hydroxy-N-(tetrazol-5-yl)benzamide]	5
Cc1ccc(C(=O)Nc2nnn[nH]2)c(O)c1 [AK, 2-hydroxy-4-methyl-N-(tetrazol-5-yl)benzamide]	10
O=Cc1ccc(O)c(C(=O)Nc2nnn[nH]2)c1 [BL, 5-formyl-2-hydroxy-N-(tetrazol-5-yl)benzamide]	0.5
Cc1cc(C=O)c(O)c(C(=O)Nc2nnn[nH]2)c1 [CI, 3-formyl-2-hydroxy-5-methyl-N-(tetrazol-5-yl)benzamide]	2
O=C(Nc1ccc(O)c(C(=O)Nc2nnn[nH]2)c1)OCc1ccccc1 [BQ, 5-benzyloxycarbonylamino-2-hydroxy-N-(tetrazol-5-yl)benzamide]	5
CS(=O)(=O)c1cccc(C(=O)Nc2nnn[nH]2)c1O [BJ, 2-hydroxy-3-methylsulphonyl-N-(tetrazol-5-yl)benzamide]	20
O=C(Nc1nnn[nH]1)c1ccc(O)cc1O [AJ, 2,4-dihydroxy-N-(tetrazol-5-yl)benzamide]	10
Cc1cc(C(=O)Nc2nnn[nH]2)c(O)c(-c2nnn[nH]2)c1 [CM, 2-hydroxy-5-methyl-3,N-bis(tetrazol-5-yl)benzamide]	0.05
O=C(Nc1nnn[nH]1)c1ccc(F)cc1O [BD, 4-fluoro-2-hydroxy-N-(tetrazol-5-yl)benzamide]	10
O=C(Nc1nnn[nH]1)c1cc(O)ccc1O [AF, 2,5-dihydroxy-N-(tetrazol-5-yl)benzamide]	1
O=Cc1cccc(C(=O)Nc2nnn[nH]2)c1O [CH, 3-formyl-2-hydroxy-N-(tetrazol-5-yl)benzamide]	0.5
N#Cc1ccc(O)c(C(=O)Nc2nnn[nH]2)c1 [CK, 5-cyano-2-hydroxy-N-(tetrazol-5-yl)benzamide]	0.2
O=C(O)c1cccc(C(=O)Nc2nn[nH]n2)c1O [CN, 3-N-(tetrazol-5-yl)carbamoylsalicylic acid]	1
O=C(Nc1nnn[nH]1)c1cc(Br)ccc1O [BM, 5-bromo-2-hydroxy-N-(tetrazol-5-yl)benzamide]	5
O=C(Nc1ccc(C(=O)Nc2nnn[nH]2)c(O)c1)OCc1ccccc1 [BR, 4-benzyloxycarbonylamino-2-hydroxy-N-(tetrazol-5-yl)benzamide]	0.5
CC(=O)Nc1ccc(O)c(C(=O)Nc2nnn[nH]2)c1 [AZ, 5-acetylamino-2-hydroxy-N-(tetrazol-5-yl)benzamide]	10
CS(=O)(=O)c1ccc(O)c(C(=O)Nc2nnn[nH]2)c1 [BO, 2-hydroxy-5-methylsulphonyl-N-(tetrazol-5-yl)benzamide]	5
CC(=O)c1cc(Br)cc(C(=O)Nc2nnn[nH]2)c1O [CB, 3-acetyl-5-bromo-2-hydroxy-N-(tetrazol-5-yl)benzamide]	2

Same assay, conditions: Rattus norvegicus, oral dose of 100 mg/kg, thirty minutes before intravenous allergen

Compound	inhibition in vivo at 100 mg/kg [%]
O=C(Nc1nnn[nH]1)c1cc(Br)cc(Br)c1O [AY, 3,5-dibromo-2-hydroxy-N-(tetrazol-5-yl)benzamide]	65
Cc1ccc(C(=O)Nc2nnn[nH]2)c(O)c1 [AK, 2-hydroxy-4-methyl-N-(tetrazol-5-yl)benzamide]	32
O=Cc1ccc(O)c(C(=O)Nc2nnn[nH]2)c1 [BL, 5-formyl-2-hydroxy-N-(tetrazol-5-yl)benzamide]	25
Cc1cc(C=O)c(O)c(C(=O)Nc2nnn[nH]2)c1 [CI, 3-formyl-2-hydroxy-5-methyl-N-(tetrazol-5-yl)benzamide]	70
CS(=O)(=O)c1cccc(C(=O)Nc2nnn[nH]2)c1O [BJ, 2-hydroxy-3-methylsulphonyl-N-(tetrazol-5-yl)benzamide]	64
O=C(Nc1nnn[nH]1)c1ccc(O)cc1O [AJ, 2,4-dihydroxy-N-(tetrazol-5-yl)benzamide]	38
Cc1cc(C(=O)Nc2nnn[nH]2)c(O)c(-c2nnn[nH]2)c1 [CM, 2-hydroxy-5-methyl-3,N-bis(tetrazol-5-yl)benzamide]	64
O=C(Nc1nnn[nH]1)c1ccc(F)cc1O [BD, 4-fluoro-2-hydroxy-N-(tetrazol-5-yl)benzamide]	75
O=Cc1cccc(C(=O)Nc2nnn[nH]2)c1O [CH, 3-formyl-2-hydroxy-N-(tetrazol-5-yl)benzamide]	75
N#Cc1ccc(O)c(C(=O)Nc2nnn[nH]2)c1 [CK, 5-cyano-2-hydroxy-N-(tetrazol-5-yl)benzamide]	89
O=C(O)c1cccc(C(=O)Nc2nn[nH]n2)c1O [CN, 3-N-(tetrazol-5-yl)carbamoylsalicylic acid]	43
O=C(Nc1nnn[nH]1)c1cc(Br)ccc1O [BM, 5-bromo-2-hydroxy-N-(tetrazol-5-yl)benzamide]	46
CS(=O)(=O)c1ccc(O)c(C(=O)Nc2nnn[nH]2)c1 [BO, 2-hydroxy-5-methylsulphonyl-N-(tetrazol-5-yl)benzamide]	63
CC(=O)c1cc(Br)cc(C(=O)Nc2nnn[nH]2)c1O [CB, 3-acetyl-5-bromo-2-hydroxy-N-(tetrazol-5-yl)benzamide]	66

Same assay, conditions: Rattus norvegicus, oral, thirty minutes before intravenous allergen, read-out: ED50 (oral dose which produces 50% inhibition of the PCA reaction)

Compound	ED50 [mg/kg]
Cc1cc(C=O)c(O)c(C(=O)Nc2nnn[nH]2)c1 [CI, 3-formyl-2-hydroxy-5-methyl-N-(tetrazol-5-yl)benzamide]	5.4
O=Cc1cccc(C(=O)Nc2nnn[nH]2)c1O [CH, 3-formyl-2-hydroxy-N-(tetrazol-5-yl)benzamide]	5.3
N#Cc1ccc(O)c(C(=O)Nc2nnn[nH]2)c1 [CK, 5-cyano-2-hydroxy-N-(tetrazol-5-yl)benzamide]	50
O=C(O)c1cccc(C(=O)Nc2nn[nH]n2)c1O [CN, 3-N-(tetrazol-5-yl)carbamoylsalicylic acid]	20
O=C(Nc1nnn[nH]1)c1cc(Br)ccc1O [BM, 5-bromo-2-hydroxy-N-(tetrazol-5-yl)benzamide]	65
CC(=O)c1cc(Br)cc(C(=O)Nc2nnn[nH]2)c1O [CB, 3-acetyl-5-bromo-2-hydroxy-N-(tetrazol-5-yl)benzamide]	64
